One data set concerns MRC5 cells. Nature of the data set: Cell health and viability image-based study (fluorescence microscopy), MRC5. The settings on record: for IC50: Homo sapiens, MRC5, imaging; for toxicity in words, imaging, MRC5: up to 1000 μM. As for the experimental part: (§1) The multiparametric assay developed surveys a number of elements of cell health simultaneously. Using a combination of 2 dyes, we are able to simultaneously measure nuclear morphology, membrane integrity and cell proliferation. All measurements are made on live cells after an incubation time of 24H. Hoechst 33342 is used to measure total number of cells, nuclear morphology and cell proliferation. The nuclear impermeable dye Syto17 is used to assess the nuclear membrane integrity by measuring the nuclear translocation of the dye when the membrane gets porous after incubation with a toxic compound. Cells were plated at a density of 1500 cells/25 al in well in a 384 wells plate the day before incubation with the drugs. The following day, 0.1 al of the source plate are added to the assay plate. Then, 25 al of a fluorophores mixture containing Hoechst 33342, Syto17 diluted in EMEM was added to each well. Plates are read after 48 h incubation in the ImageXpress instrument (Molecular Devices) using the appropriate filters. Images are analyzed using an application of MetaXpress software (Molecular Devices) and data are presented using Prism software. Low Signal Control (C23): 5 μM Staurosporine; High Signal Control (C24): DMSO.

The next data set concerns HepG2 cells. Nature of the data set: Cell health and viability image-based study (fluorescence microscopy), HepG2. To be noted: for IC50: Homo sapiens, HepG2, imaging; for toxicity in words, imaging, HepG2: up to 1000 μM. How it is done: as §1
Data set [1] in a line: Pharmacokinetics in mice, plasma and lung. The format is in vivo. The settings on record: 10 mg/kg intraperitoneal. How it is done:
Twenty-four female mice were weighed and administered anthranilyl-AMS intraperitoneally at 10 mg/kg dose. The animals assigned for 24 hours sampling after dosing were kept in metabolic cages to collect urine and feces at an interval of 0 to 4, 4 to 8, and 8 to 24 hours. Approximately 60 μL of blood samples were collected from retro orbital plexus at 0.08, 0.25, 0.5, 1, 2, 4, 8, and 24 hours following i.p. administration. The blood samples were collected from three mice under light isoflurane anesthesia at each time point in labeled micro centrifuge tube containing K2EDTA solution. Blood samples were centrifuged at 4000 rpm for 10 minutes at 4±2° C. Immediately after plasma collection the animals were humanely euthanized by carbon dioxide asphyxiation, and lung samples were collected from each mouse at 0.08, 0.25, 0.5, 1, 2, 4, 8, and 24 hours. The tissue samples were then homogenized using ice-cold phosphate buffer saline (pH 7.4), and the total homogenate volume was three times of the tissue weight. The collected feces were weighed and homogenized with 9 volumes of ice-cold phosphate buffer saline (pH 7.4), and homogenates were stored below −70° C. until analysis. All samples were stored below −70° C. until sample analysis. The plasma and tissue samples were processed using protein precipitation with acetonitrile (ACN) and analyzed with fit for purpose LC-MS/MS method. Pharmacokinetic parameters were calculated using the non-compartmental analysis tool of Phoenix WinNonlin® (Version 6.3).

Another data set deals with P. aeruginosa PqsA (Pseudomonas aeruginosa, UniProt Q9I4X3). Nature of the data set: PqsA inhibition, spectrophotometric assay with recombinant PqsA (anthranilyl-CoA formation at 365 nm). The format is biochemical. The settings on record: uncompetitive with respect to anthranilate and CoA. As for the experimental part:
PqsA inhibitors were evaluated using a quantitative spectrophotometric assay with recombinant PqsA, detecting formation of anthranilyl-CoA at 365 nm. See, e.g., Coleman et al. (2008) J. Bacteriol. 190, 1247. […] See, e.g., Morrison et al. Biochim. Biophys. Acta, Enzymol. 185, 269-286; Williams et al. (1979) Methods Enzymol. 63, 437. […] See, e.g., Qiao et al. (2007) J. Am. Chem. Soc. 129, 6350.
Reactions were performed at 37° C. in a 0.5 mL volume in a Varian Cary 100 UV-visible spectrophotometer with Cary WinUV software. Reaction mixtures contained 100 mM HEPES, pH 8.0, 0.2 mM dithiothreitol, 2 mM MgCl2, ˜3.3 μg PqsA protein (˜60 nM final), and depending on which substrate varied, 1 mM ATP (disodium salt), 0.5 mM coenzyme A (tri-lithium salt), 0.5 mM sodium anthranilate, and inhibitor (usually as a DMSO stock solution). Reactions were blanked and preincubated with all components except anthranilate at 37° C. for 1 min, then initiated by addition of anthranilate. Formation of anthraniloyl-CoA was monitored ance at 365 nm (ε=5.5 mM−1 cm−1) for 1 min. Data were analyzed using GraphPad Prism 6 software.

Setting [2] is: Hoechst 33342, read-out: Cell Count IC50, MRC5.
[3] abbreviates: Syto17, read-out: Nuclear membrane integrity IC50, MRC5.
Setting [4] is: Hoechst 33342, read-out: Cell Count IC50, HepG2.
The mark [5] stands for this setting: Syto17, read-out: Nuclear membrane integrity IC50, HepG2.

Like-named read-outs stand apart in the source and are kept apart here.

What is called IC50 is the concentration needed to halve the response being measured. The term AUC denotes concentration integrated over time. Low values mean low exposure, high ones high exposure. A word on the Cmax: it is the highest concentration seen after dosing.

Chain of P. aeruginosa PqsA (Q9I4X3 whole entry): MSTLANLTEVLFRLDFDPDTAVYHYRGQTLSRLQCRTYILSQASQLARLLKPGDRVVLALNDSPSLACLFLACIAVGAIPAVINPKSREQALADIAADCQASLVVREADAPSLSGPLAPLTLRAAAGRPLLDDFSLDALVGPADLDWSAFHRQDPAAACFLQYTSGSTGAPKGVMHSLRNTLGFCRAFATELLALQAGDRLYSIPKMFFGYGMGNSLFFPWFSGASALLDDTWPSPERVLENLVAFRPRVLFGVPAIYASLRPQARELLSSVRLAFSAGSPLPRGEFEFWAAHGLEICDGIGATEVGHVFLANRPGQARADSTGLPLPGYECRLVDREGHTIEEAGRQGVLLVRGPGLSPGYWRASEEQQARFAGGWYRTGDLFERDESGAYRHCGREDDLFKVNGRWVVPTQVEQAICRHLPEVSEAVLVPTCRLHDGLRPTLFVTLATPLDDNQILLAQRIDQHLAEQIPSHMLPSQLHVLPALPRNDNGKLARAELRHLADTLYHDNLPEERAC

Turning to `Nc1ccccc1C(=O)NS(=O)(=O)OC[C@H]1O[C@@H](n2cnc3c(N)ncnc32)[C@H](O)[C@@H]1O` [anthranilyl-AMS, Anthranilyl-AMS], the 50% inhibitory concentration (IC50) with MRC5 cells (setting [2]) amounted to 21.5 µM; in the data set on MRC5 cells (setting [3]), 25.5 µM; with HepG2 cells (setting [4]), 5.9 µM; with HepG2 cells (setting [5]), 12.1 µM. The “toxicity in words, imaging, MRC5” value in the data set with MRC5 cells is recorded as “significant toxicity in the tested range”. For the same compound, the “toxicity in words, imaging, HepG2” value with HepG2 cells is listed as “significant toxicity in the tested range”. Besides, the AUC lung in data set [1] (lung) was 63.9 μg · min/mL or μg · min/g. In data set [1] (lung), this compound registered a Cmax lung of 2000 ± 300 ng/mL. The half-life was determined as 2.17 h in data set [1] (female, mouse, ip, lung, read-out: T1/2 lung) and 1.06 h in data set [1] (female, mouse, ip, plasma, read-out: T1/2 plasma). The compound also had an AUC in data set [1] (female, mouse, ip, plasma) of 5000 ng·h/mL. The peak concentration (Cmax) in data set [1] (female, mouse, ip, plasma) was 12100 ± 2900 ng/mL. In addition, in data set [1] (female, mouse, lung / plasma, ip, read-out: lung/plasma ratio), the Kp was 0.21. In addition, on P. aeruginosa PqsA, the “mode of PqsA inhibition” value is recorded as “competitive inhibitors with respect to ATP”.

`Nc1ccccc1C(=O)NS(=O)(=O)NC[C@H]1O[C@@H](n2cnc3c(N)ncnc32)[C@H](O)[C@@H]1O` [anthranilyl-AMSN, Anthranilyl-AMSN]: the half-inhibitory concentration (IC50) is 58.8 µM in the data set with MRC5 cells (setting [2]), 74.3 µM in the data set on MRC5 cells (setting [3]), 6 µM with HepG2 cells (setting [4]) and 56.3 µM with HepG2 cells (setting [5]). In addition, the “toxicity in words, imaging, MRC5” value with MRC5 cells was “significant toxicity in the tested range”. Also, the “toxicity in words, imaging, HepG2” value in the data set on HepG2 cells is “significant toxicity in the tested range”. For the same compound, the “mode of PqsA inhibition” value on P. aeruginosa PqsA is given as “competitive inhibitors with respect to ATP”.

Values taken from patent US10874686B2, “Anthranilyl-adenosinemonosulfamate analogs and uses thereof” (Memorial Sloan-Kettering Cancer Center, priority 2015, dated 2020).
